Several values for one entry are separate records, joined by “and”; a condition that tells them apart may be missing. Equal values may be shown once. Toxic doses and inconclusive results are not listed. Cut-off read from the data, not from the text of the source: active = T/C of 150% or more; inactive = T/C below 125%.
Tested on: L1210 leukemia ip in BDF1 mice, survival T/C
Test: NCI In Vivo Anticancer Drug Screen. Data for tumor model L1210 Leukemia (intraperitoneal) in B6D2F1 (BDF1) mice
Conditions: endpoint: mean survival time, higher = longer survival
Outline: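 Read-out is survival time, reported as the treated-group measurement over the vehicle-control measurement.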

[1] = dose: 50.0 mg/kg/injection, schedule: Q01DX009 (ip), vehicle: saline with Tween-80
[2] = dose: 100.0 mg/kg/injection, schedule: Q01DX009 (ip), vehicle: saline with Tween-80
[3] = dose: 100.0 mg/kg/injection, schedule: Q04DX003 (ip), vehicle: Klucel (hydroxypropylcellulose) (HPC)
[4] = dose: 200.0 mg/kg/injection, schedule: Q01DX009 (ip), vehicle: saline with Tween-80
[5] = dose: 200.0 mg/kg/injection, schedule: Q04DX003 (ip), vehicle: Klucel (hydroxypropylcellulose) (HPC)
[6] = dose: 400.0 mg/kg/injection, schedule: Q04DX003 (ip), vehicle: Klucel (hydroxypropylcellulose) (HPC)
[7] = dose: 100.0 mg/kg/injection, schedule: Q01DX001 (ip), vehicle: Klucel (hydroxypropylcellulose) (HPC)
[8] = dose: 100.0 mg/kg/injection, schedule: Q01DX009 (ip), vehicle: Klucel (hydroxypropylcellulose) (HPC)
[9] = dose: 200.0 mg/kg/injection, schedule: Q01DX001 (ip), vehicle: Klucel (hydroxypropylcellulose) (HPC)
[10] = dose: 200.0 mg/kg/injection, schedule: Q01DX009 (ip), vehicle: Klucel (hydroxypropylcellulose) (HPC)
[11] = dose: 400.0 mg/kg/injection, schedule: Q01DX001 (ip), vehicle: Klucel (hydroxypropylcellulose) (HPC)
[12] = dose: 400.0 mg/kg/injection, schedule: Q01DX009 (ip), vehicle: Klucel (hydroxypropylcellulose) (HPC)
[13] = dose: 50.0 mg/kg/injection, schedule: Q04DX002 (ip), vehicle: Klucel (hydroxypropylcellulose) (HPC)
[14] = dose: 100.0 mg/kg/injection, schedule: Q04DX002 (ip), vehicle: Klucel (hydroxypropylcellulose) (HPC)
[15] = dose: 200.0 mg/kg/injection, schedule: Q04DX002 (ip), vehicle: Klucel (hydroxypropylcellulose) (HPC)
[16] = dose: 25.0 mg/kg/injection, schedule: Q01DX009 (ip), vehicle: Klucel (hydroxypropylcellulose) (HPC)
[17] = dose: 50.0 mg/kg/injection, schedule: Q01DX009 (ip), vehicle: Klucel (hydroxypropylcellulose) (HPC)
[18] = dose: 75.0 mg/kg/injection, schedule: Q01DX001 (ip), vehicle: saline
[19] = dose: 150.0 mg/kg/injection, schedule: Q01DX001 (ip), vehicle: saline
[20] = dose: 100.0 mg/kg/injection, schedule: Q04DX003 (ip), vehicle: saline
[21] = dose: 200.0 mg/kg/injection, schedule: Q04DX003 (ip), vehicle: saline
[22] = dose: 400.0 mg/kg/injection, schedule: Q04DX003 (ip), vehicle: saline
[23] = dose: 100.0 mg/kg/injection, schedule: Q04DX003 (ip), vehicle: saline with Tween-80
[24] = dose: 200.0 mg/kg/injection, schedule: Q04DX003 (ip), vehicle: saline with Tween-80
[25] = dose: 400.0 mg/kg/injection, schedule: Q01DX009 (ip), vehicle: saline with Tween-80
[26] = dose: 400.0 mg/kg/injection, schedule: Q04DX003 (ip), vehicle: saline with Tween-80
[27] = dose: 25.0 mg/kg/injection, schedule: Q04DX002 (ip), vehicle: Klucel (hydroxypropylcellulose) (HPC)
[28] = dose: 400.0 mg/kg/injection, schedule: Q04DX002 (ip), vehicle: Klucel (hydroxypropylcellulose) (HPC)
[29] = dose: 50.0 mg/kg/injection, schedule: Q01DX009 (ip), vehicle: saline
[30] = dose: 200.0 mg/kg/injection, schedule: Q01DX009 (ip), vehicle: saline
[31] = dose: 100.0 mg/kg/injection, schedule: Q01DX009 (ip), vehicle: saline

Measured: T/C

O=[N+]([O-])c1ccc(/C=N\Nc2ccc([N+](=O)[O-])cn2)cc1
inactive: [1] 91 % of control | dose: 100.0 mg/kg/injection, schedule: Q01DX009 (ip), vehicle: saline sonified 92 % of control | [2] 95 % of control | [3] 94 % of control | dose: 200.0 mg/kg/injection, schedule: Q01DX009 (ip), vehicle: saline sonified 87 % of control | [4] 87 % of control | [5] 93 % of control | dose: 400.0 mg/kg/injection, schedule: Q01DX009 (ip), vehicle: saline sonified 95 % of control | [6] 101 % of control

O=C(Nc1ccc([N+](=O)[O-])cn1)Nc1ccccc1F
inactive: [7] 92 % of control | [8] 101 % of control and 90 % of control | [3] 99 % of control | [9] 89 % of control | [10] 100 % of control and 87 % of control | [5] 105 % of control | [11] 92 % of control | [12] 101 % of control and 90 % of control | [6] 99 % of control

Nc1nc(N)c2[nH]c(CCCc3ccccc3)nc2n1
inactive: [13] 98 % of control | [14] 98 % of control | [15] 98 % of control

O=C(O)c1cc(O)cc(O)c1
inactive: [16] 100 % of control | [17] 97 % of control | [8] 100 % of control

C(#CCN1CCCCC1)CN1CCCCC1
inactive: [18] 105 % of control | [19] 103 % of control | dose: 300.0 mg/kg/injection, schedule: Q01DX001 (ip), vehicle: saline 101 % of control

Nc1ccc(CCCCc2c(N)nc(N)nc2N)cc1
inactive: [3] 97 % of control | [5] 93 % of control

C=CC(C)C1CCC2(C)C3=C(C(=O)CC12C)C1(C)C/C(=N/O)C(O)C(C)(C)C1=C(O)C3=O (stereo not given)
inactive: [20] 98 % of control | [21] 95 % of control | [22] 98 % of control

O=c1[nH]c(=O)n(CC(O)c2ccc(Cl)s2)cc1F (stereo not given)
inactive: [2] 100 % of control | [23] 100 % of control | [4] 101 % of control | [24] 96 % of control | [25] 95 % of control | [26] 97 % of control

O=C1OC(/C=C/c2ccccc2)=NC/1=C\c1cccc([N+](=O)[O-])c1
inactive: [27] 93 % of control | [13] 104 % of control | [14] 89 % of control

CC1(C)CCCC2(C)C3Cc4occc4C(C(=O)O)C3C(O)C(O)C12 (stereo not given)
inactive: [23] 106 % of control | [24] 109 % of control | [26] 98 % of control

CCOC(=O)c1ccc(N(CC(=O)CN=[N+]=[N-])S(=O)(=O)c2ccc(C)cc2)cc1
inactive: [2] 96 % of control | [4] 96 % of control | [25] 89 % of control

S=P(Nc1ccc(Cl)cc1Cl)(Nc1ccc(Cl)cc1Cl)c1ccccc1
inactive: [8] 102 % of control | [10] 100 % of control | [12] 110 % of control

Cc1cccc(Cl)c1NC(=O)COc1ccc(Cl)cc1
inactive: [8] 102 % of control | [10] 89 % of control | [12] 93 % of control

Cc1cc[n+](C)c2ccccc12
inactive: dose: 9.37 mg/kg/injection, schedule: Q01DX009 (ip), vehicle: saline with Tween-80 101 % of control | dose: 18.75 mg/kg/injection, schedule: Q01DX009 (ip), vehicle: saline with Tween-80 112 % of control | dose: 37.5 mg/kg/injection, schedule: Q01DX009 (ip), vehicle: saline with Tween-80 100 % of control | dose: 37.5 mg/kg/injection, schedule: Q04DX003 (ip), vehicle: saline 100 % of control | [18] 103 % of control

FC1(F)C=C(c2ccccc2)C1(Cl)Cl
inactive: [16] 102 % of control | [17] 100 % of control | [8] 92 % of control and 98 % of control | [3] 107 % of control | [5] 113 % of control

CC(C)=CCc1ccc(O)cc1
inactive: dose: 100.0 mg/kg/injection, schedule: Q01DX009 (ip), vehicle: saline + alcohol 95 % of control | [3] 96 % of control | [5] 100 % of control | [6] 95 % of control

CC(C)(C)NC(=O)NCc1cccc(Cl)c1
inactive: [14] 100 % of control | [15] 107 % of control | [28] 96 % of control

ONc1ncnc2nc[nH]c12
inactive: dose: 7.5 mg/kg/injection, schedule: Q01DX009 (ip), vehicle: Klucel (hydroxypropylcellulose) (HPC) 121 % of control | dose: 15.0 mg/kg/injection, schedule: Q01DX009 (ip), vehicle: Klucel (hydroxypropylcellulose) (HPC) 119 % of control | dose: 30.0 mg/kg/injection, schedule: Q01DX009 (ip), vehicle: Klucel (hydroxypropylcellulose) (HPC) 117 % of control | [29] 114 % of control | dose: 60.0 mg/kg/injection, schedule: Q01DX009 (ip), vehicle: Klucel (hydroxypropylcellulose) (HPC) 121 % of control | dose: 100.0 mg/kg/injection, schedule: Q01DX001 (ip), vehicle: saline 110 % of control | dose: 200.0 mg/kg/injection, schedule: Q01DX001 (ip), vehicle: saline 112 % of control | [30] 114 % of control | dose: 400.0 mg/kg/injection, schedule: Q01DX001 (ip), vehicle: saline 114 % of control

O=C(Nc1ccc(Nc2ccccc2)cc1)Nc1cccc2ccccc12
inactive: [7] 97 % of control | [8] 100 % of control | [31] 100 % of control | [14] 98 % of control and 105 % of control | [3] 97 % of control | [9] 92 % of control | [10] 90 % of control | [30] 100 % of control | [15] 93 % of control and 94 % of control | [5] 92 % of control | [11] 95 % of control | [12] 100 % of control | dose: 400.0 mg/kg/injection, schedule: Q01DX009 (ip), vehicle: saline 88 % of control | [28] 98 % of control and 102 % of control

CN(N)Cc1cccc(O)c1
inactive: [29] 101 % of control | [31] 104 % of control | [30] 101 % of control

O=C(CCCBr)Nc1ccc2ccccc2c1
inactive: [1] 98 % of control | [2] 95 % of control | [4] 95 % of control

O=C1C2C3CCC(O3)C2C(=O)N1C(=O)N1C(=O)C2C3CCC(O3)C2C1=O (stereo not given)
inactive: [27] 101 % of control | [13] 94 % of control | [14] 111 % of control and 89 % of control

CCOC(=O)C(=CC(CC)C(=O)OCC)C(=O)OCC (stereo not given) (tested in a mixture with another compound)
inactive: [20] 93 % of control | [21] 93 % of control | [22] 89 % of control

C/C=C\C=N\NC(=O)CCCCCCCCCCC
inactive: [16] 105 % of control | [17] 91 % of control | [8] 100 % of control and 90 % of control

CC(CP(=O)(c1ccccc1)c1ccccc1)C(=O)O (stereo not given)
inactive: [2] 98 % of control | [4] 97 % of control | [25] 98 % of control

O=C(Oc1ccc(Cl)cc1Cl)c1ccccc1
inactive: [2] 110 % of control | [23] 98 % of control | [4] 110 % of control | [24] 96 % of control | [25] 113 % of control | [26] 101 % of control

Cc1ccc(N=Nc2c(C)nn(C(N)=S)c2-c2ccccc2)cc1
inactive: [18] 94 % of control | [19] 90 % of control

N=C(OC1CCCCC1)N1CCOCC1
inactive: dose: 22.0 mg/kg/injection, schedule: Q01DX Z (ip), vehicle: saline 100 % of control | dose: 33.0 mg/kg/injection, schedule: Q01DX Z (ip), vehicle: saline 102 % of control | dose: 50.0 mg/kg/injection, schedule: Q01DX Z (ip), vehicle: saline 106 % of control

COC(=O)C1C2OC(C(Br)C2Br)C1C(=O)O (stereo not given)
inactive: [23] 100 % of control | [24] 98 % of control | [26] 96 % of control
